Molecules are shown by their SMILES.

16 compounds from patent US20230257351A1, “SUBSTITUTED N-[…] HAVING P2X4 RECEPTOR ANTAGONISTIC ACTIVITY” (Bayer Aktiengesellschaft, priority 2020, published 2023) can be followed below.

One assay has as its target T1, human P2X4 (Homo sapiens, UniProt Q99571).
T1 construct: expressed in transfected cells
T1 sequence (Q99571 1-388): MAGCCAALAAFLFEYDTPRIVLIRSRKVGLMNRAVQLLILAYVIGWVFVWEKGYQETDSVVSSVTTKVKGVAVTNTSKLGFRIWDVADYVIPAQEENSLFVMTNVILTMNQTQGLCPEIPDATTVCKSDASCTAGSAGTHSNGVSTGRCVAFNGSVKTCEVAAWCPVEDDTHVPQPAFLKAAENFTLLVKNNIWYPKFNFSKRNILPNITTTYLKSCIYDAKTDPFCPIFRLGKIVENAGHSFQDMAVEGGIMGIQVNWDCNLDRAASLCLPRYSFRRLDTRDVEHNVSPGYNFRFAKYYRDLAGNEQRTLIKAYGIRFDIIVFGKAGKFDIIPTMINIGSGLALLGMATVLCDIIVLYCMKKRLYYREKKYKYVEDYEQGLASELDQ
Kind of assay: Human P2X4 HEK Cell FLIPR Assay. Format: cell-based. The settings on record: HEK293 stably expressing human P2X4, agonist Bz-ATP 3 μM (EC80); for IC50: read-out: Human P2X4 HEK Cells (FLIPR Assay) avg IC50. A digest of the protocol: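 HEK293 cells stably expressing human P2X4 were loaded with Fluo8-AM (30 min, 37 °C, HBSS/HEPES pH 7.4 with probenecid), then preincubated 30 min at room temperature with compound, 25 μM–1 nM final, 0.5% DMSO. Bz-ATP-evoked calcium fluorescence was read on FLIPR; data were normalized to agonist control and given a four-parameter fit for IC50.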

A further assay deals with T2, rat P2X4 (Rattus norvegicus, UniProt P51577).
T2 construct: expressed in transfected cells
T2 sequence (P51577 1-388): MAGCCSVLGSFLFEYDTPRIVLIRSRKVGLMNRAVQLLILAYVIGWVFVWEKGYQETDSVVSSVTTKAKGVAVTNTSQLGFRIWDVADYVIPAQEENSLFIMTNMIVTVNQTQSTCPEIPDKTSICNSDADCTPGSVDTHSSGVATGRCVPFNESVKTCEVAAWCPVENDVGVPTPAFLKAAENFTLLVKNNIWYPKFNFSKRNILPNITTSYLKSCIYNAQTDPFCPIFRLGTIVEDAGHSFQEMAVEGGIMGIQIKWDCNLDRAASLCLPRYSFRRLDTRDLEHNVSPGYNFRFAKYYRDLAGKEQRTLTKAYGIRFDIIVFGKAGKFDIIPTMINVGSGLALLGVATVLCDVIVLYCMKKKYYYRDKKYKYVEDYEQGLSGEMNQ
Kind of assay: FLIPR Method for Rat P2X4 1321N1 Astrocytoma Cells. Format: cell-based. The settings on record: 1321N1 stably expressing rat P2X4; agonist MgATP 5 μM (EC80). On the procedure:
Compounds were tested on a 1321N1 cell line stably expressing rat P2X4. Cells were cultured on collagen-I-coated 384-well plates at a density of 10,000 cells/well and incubated overnight at 37° C., 5% CO2. P2X4 function was assessed by measuring intracellular calcium fluxes caused by Magnesium-ATP (MgATP) using the calcium-chelating dye Fluo8-AM (Molecular Devices) with the Fluorescent Imaging Plate Reader Tetra (FLIPR^Tetra; Molecular Devices CA). On the day of the assay, the medium was removed and the cells were incubated for 30 minutes at 37° C. and 5% CO2 in 30 μl of dye buffer (Hank's balanced salt solution, 10 mM HEPES, 1.8 mM CaCl2, 1 mM MgCl2, 2 mM probenecid, 5 mM D-glucose monohydrate, 5 μM Fluo8-AM, pH=7.4).
Compounds diluted in probenecid buffer (Hank's balanced salt solution, 10 mM HEPES, 1.8 mM CaCl2, 1 mM MgCl2, 2 mM probenecid, 5 mM D-glucose monohydrate, pH=7.4) at ten concentrations ranging from 25 μM to 1 nM (final concentration) were dispensed and incubated for 30 minutes at room temperature. The agonist, MgATP (Sigma-Aldrich Chemie GmbH, DE), was added at a final concentration of 5 μM, representing the EC80 routinely determined. The final assay volume was 50 μl and final DMSO concentration was 0.5%.
The fluorescence intensity reflecting intracellular calcium changes was recorded before and after MgATP addition, at an excitation and emission wavelengths of 470-495 nm and 515-575 nm respectively.
The compounds were tested in triplicates and fluorescence intensity raw data normalized to the agonist control and fitted to the four-parameter logistic equation:
Y=Bottom+(Top−Bottom)/(1+10^((Log IC50−X)*HillSlope))
Assay plate acceptance was based on the signal window (S/B)[…] and the reference compound pIC50 within ±[…] the mean of historic pIC50 of the compound. Failure to meet two of the three criteria determined exclusion of the plate's results. In Table 10 below the results for the assays are reported

As for `CC(=O)N(c1ccc(F)cc1)c1cc(NC(=O)Cc2cccc(F)c2C(F)(F)F)ccn1` [Example 32, N-(4-fluorophenyl)-N-(4-{2-[3-fluoro-2-(trifluoromethyl)phenyl]acetamido}pyridin-2-yl)acetamide], at human P2X4, the “Human P2X4 HEK Cells (FLIPR Assay) avg Efficacy” value (“Human P2X4 HEK Cells” below) was 101% and the IC50 was 355 nM. In addition, on rat P2X4, the IC50 amounted to 801 nM and the “Rat P2X4 1321N1 Astrocytoma Cells (FLIPR Assay) avg Efficacy” value (from here on “Rat P2X4 1321N1 Astrocytoma Cells”) came to 100%.

In the case of `CC(=O)N(c1ccc(F)cc1)c1cc(NC(=O)Cc2c(Cl)cccc2C#N)ccn1` [Example 33, N-{4-[2-(2-chloro-6-cyanophenyl)acetamido]pyridin-2-yl}-N-(4-fluorophenyl)acetamide], on human P2X4, the “Human P2X4 HEK Cells” value is reported as 93% and the half-inhibitory concentration (IC50) was 723 nM. Besides, at rat P2X4, the IC50 is 1540 nM and the “Rat P2X4 1321N1 Astrocytoma Cells” value amounted to 98%.

`CC(=O)N(c1ccc(F)cc1)c1cc(NC(=O)Cc2c(C)cccc2C)ccn1` [Example 34, N-{4-[2-(2,6-dimethylphenyl)acetamido]pyridin-2-yl}-N-(4-fluorophenyl)acetamide]: at human P2X4, the “Human P2X4 HEK Cells” value amounted to 97% and the IC50 stood at 199 nM. On rat P2X4, the half-inhibitory concentration (IC50) turned out to be 170 nM and the “Rat P2X4 1321N1 Astrocytoma Cells” value came to 94%.

With `CC(=O)N(c1ccc(F)cc1)c1cc(NC(=O)Cc2ccccc2Cl)ccn1` [Example 36, N-{4-[2-(2-chlorophenyl)acetamido]pyridin-2-yl}-N-(4-fluorophenyl)acetamide], at human P2X4, the “Human P2X4 HEK Cells” value was determined as 91% and the IC50 stood at 206 nM. On rat P2X4, the 50% inhibitory concentration (IC50) was 290 nM and the “Rat P2X4 1321N1 Astrocytoma Cells” value is 90%.

As to `CC(=O)N(c1ccc(F)cc1)c1cc(NC(=O)Cc2ccc(F)cc2Cl)ccn1` [Example 37, N-{4-[2-(2-chloro-4-fluorophenyl)acetamido]pyridin-2-yl}-N-(4-fluorophenyl)acetamide], at human P2X4, the “Human P2X4 HEK Cells” value is given as 95% and the IC50 came to 894 nM. Besides, on rat P2X4, the IC50 was determined as 242 nM and the “Rat P2X4 1321N1 Astrocytoma Cells” value turned out to be 96%.

As to `CC(=O)N(c1ccc(F)cc1)c1cc(NC(=O)Cc2c(Cl)cccc2Cl)ccn1` [Example 38, N-{4-[2-(2,6-dichlorophenyl)acetamido]pyridin-2-yl}-N-(4-fluorophenyl)acetamide], on human P2X4, the “Human P2X4 HEK Cells” value stood at 96% and the IC50 was found to be 232 nM. In addition, on rat P2X4, the IC50 was found to be 136 nM and the “Rat P2X4 1321N1 Astrocytoma Cells” value came out at 98%.

In the case of `CC(=O)N(c1ccc(F)cc1)c1cc(NC(=O)Cc2c(Cl)cc(F)cc2Cl)ccn1` [Example 39, N-{4-[2-(2,6-dichloro-4-fluorophenyl)acetamido]pyridin-2-yl}-N-(4-fluorophenyl)acetamide], on human P2X4, the “Human P2X4 HEK Cells” value worked out at 100% and the IC50 was 335 nM. In addition, at rat P2X4, the IC50 was determined as 152 nM and the “Rat P2X4 1321N1 Astrocytoma Cells” value was 98%.

In the case of `CC(=O)N(c1ccc(F)cc1)c1cc(NC(=O)Cc2c(F)cccc2Cl)ccn1` [Example 40, N-{4-[2-(2-chloro-6-fluorophenyl)acetamido]pyridin-2-yl}-N-(4-fluorophenyl)acetamide], on human P2X4, the “Human P2X4 HEK Cells” value is on record as 90% and the concentration for half-maximal inhibition (IC50) was 308 nM. Also, on rat P2X4, the 50% inhibitory concentration (IC50) was determined as 194 nM and the “Rat P2X4 1321N1 Astrocytoma Cells” value was 75%.

Turning to `CC(=O)N(c1ccc(F)cc1)c1cc(NC(=O)Cc2c(F)cc(F)cc2Cl)ccn1` [Example 41, N-{4-[2-(2-chloro-4,6-difluorophenyl)acetamido]pyridin-2-yl}-N-(4-fluorophenyl)acetamide], at human P2X4, the “Human P2X4 HEK Cells” value is 94% and the IC50 was 589 nM. Moreover, on rat P2X4, the IC50 was found to be 115 nM and the “Rat P2X4 1321N1 Astrocytoma Cells” value was 91%.

In the case of `CC(=O)N(c1ccc(F)cc1)c1cc(NC(=O)Cc2ccccc2OC(F)(F)F)ccn1` [Example 42, N-(4-fluorophenyl)-N-(4-{2-[2-(trifluoromethoxy)phenyl]acetamido}pyridin-2-yl)acetamide], on human P2X4, the “Human P2X4 HEK Cells” value is 98% and the IC50 stood at 350 nM. Besides, at rat P2X4, the IC50 amounted to 1360 nM and the “Rat P2X4 1321N1 Astrocytoma Cells” value is 96%.

Consider `CC(=O)N(c1ccc(C)cc1)c1cc(NC(=O)Cc2cccc(F)c2Cl)ccn1` [Example 45, N-{4-[2-(2-chloro-3-fluorophenyl)acetamido]pyridin-2-yl}-N-(4-methylphenyl)acetamide], for which, on human P2X4, the “Human P2X4 HEK Cells” value stood at 102% and the IC50 was 485 nM. Moreover, on rat P2X4, the IC50 came to 1180 nM and the “Rat P2X4 1321N1 Astrocytoma Cells” value was 100%.

Take `CC(=O)N(c1ccc(F)c(Cl)c1)c1cc(NC(=O)Cc2ccccc2Cl)ccn1` [Example 50, N-(3-chloro-4-fluorophenyl)-N-{4-[2-(2-chlorophenyl)acetamido]pyridin-2-yl}acetamide]: on human P2X4, the “Human P2X4 HEK Cells” value is on record as 95% and the half-inhibitory concentration (IC50) worked out at 351 nM. Moreover, at rat P2X4, the half-inhibitory concentration (IC50) was determined as 213 nM and the “Rat P2X4 1321N1 Astrocytoma Cells” value was found to be 96%.

Take `CC(=O)N(c1ccc(F)c(Cl)c1)c1cc(NC(=O)Cc2ccc(F)cc2Cl)ccn1` [Example 51, N-(3-chloro-4-fluorophenyl)-N-{4-[2-(2-chloro-4-fluorophenyl)acetamido]pyridin-2-yl}acetamide]: at human P2X4, the “Human P2X4 HEK Cells” value is on record as 98% and the concentration for half-maximal inhibition (IC50) worked out at 493 nM. On rat P2X4, the concentration for half-maximal inhibition (IC50) was found to be 177 nM and the “Rat P2X4 1321N1 Astrocytoma Cells” value was 96%.

`CC(=O)N(c1ccc(F)c(Cl)c1)c1cc(NC(=O)Cc2cccc(F)c2Cl)ccn1` [Example 52, N-(3-chloro-4-fluorophenyl)-N-{4-[2-(2-chloro-3-fluorophenyl)acetamido]pyridin-2-yl}acetamide]: on human P2X4, the “Human P2X4 HEK Cells” value was found to be 98% and the IC50 stood at 355 nM. Also, on rat P2X4, the IC50 was determined as 358 nM and the “Rat P2X4 1321N1 Astrocytoma Cells” value turned out to be 99%.

For the compound `CC(=O)N(c1ccc(F)c(Cl)c1)c1cc(NC(=O)Cc2c(Cl)cccc2Cl)ccn1` [Example 53, N-(3-chloro-4-fluorophenyl)-N-{4-[2-(2,6-dichlorophenyl)acetamido]pyridin-2-yl}acetamide], on human P2X4, the “Human P2X4 HEK Cells” value is 100% and the concentration for half-maximal inhibition (IC50) came to 455 nM. Moreover, on rat P2X4, the 50% inhibitory concentration (IC50) worked out at 143 nM and the “Rat P2X4 1321N1 Astrocytoma Cells” value came out at 100%.

`CC(=O)N(c1cccc(F)c1)c1cc(NC(=O)Cc2ccccc2Cl)ccn1` [Example 54, N-{4-[2-(2-chlorophenyl)acetamido]pyridin-2-yl}-N-(3-fluorophenyl)acetamide]: on human P2X4, the “Human P2X4 HEK Cells” value was found to be 97% and the IC50 worked out at 269 nM. On rat P2X4, the IC50 was 447 nM and the “Rat P2X4 1321N1 Astrocytoma Cells” value is 97%.

In general, IC50 refers to the concentration that inhibits the measured activity by half.
